# Measured values: US7662784B2, “Method for decreasing body weight using a somatostatin receptor agonist” (Ipsen Pharma, S.A.S., priority 1997, dated 2010)
# Bridge positions count the residues as written; N and C are the ends. Square brackets hold non-standard residues; d marks the D form. Peptide text beside a SMILES is read from it.
# Legend:
# [1] = tested on: Obese (fa/fa) Zucker rats; assay: Secondary endpoints: plasma glycerol and triglycerides after 6-day treatment, oral glucose challenge; assay type: in vivo, rat
# Description: Obese (fa/fa) Zucker rats were treated as in example 1 above. On the last day of treatment (day 6), food was removed at 5:00 p.m., and the rats were fasted overnight. At 9:00 a.m. the next day, the animals were subjected to a glucose challenge, given as 0.8 gram/kg of glucose orally. Periodic 400 μl of blood samples were taken from the tail vein (Peterson, R. G., ILAR News, 32:16-19 (1990)) 60 min. and 30 min. before and at 30, 60, 90, and 120 min. after the administration of the glucose challenge (0.8 gram/kg orally). Aprotinin (Traysylol, Bayer UK, Hayward's Health, W. Sussex, U.K. and heparin (Sigma Chemical Co., Poole, Dorset, U.K.) were added to the blood samples to a final concentration of 400 KIU/ml and 100 units/ml, respectively. Plasma fractions were prepared from these samples by centrifugation at 4000×G in a microfuge, for the estimation of triglycerides and glycerol. Samples were then stored at −80° C. until assayed.
# Plasma glycerol and triglycerides were determined using the Sigma Enzymatic (Tinder) calorimetric assay kit (Cat #337-B, Sigma Chemical Co., Poole, Dorset, U.K.) and measuring absorbance at 540 nm in a spectrophotometer.
# [2] = tested on: fatty (fa/fa) Zucker rats; assay: Weight loss study, chronic (6 day) treatment in obese animal model
# [3] = after six days at 3 mg/kg s.c. twice a day, samples 30 and 60 minutes before the oral glucose challenge
# [4] = throughout the 2-hour test period after oral glucose challenge (0.8 gram/kg)
# [5] = 3 mg/kg s.c. twice a day for six days, fatty Zucker rats
compound,measurement,setting,value
"C[C@@H](O)[C@@H]1NC(=O)[C@H](CCCCN)NC(=O)[C@@H](Cc2c[nH]c3ccccc23)NC(=O)[C@H](Cc2ccccc2)NC(=O)[C@H](Cc2ccccc2)NC(=O)[C@@H](N)CSSC[C@@H](C(N)=O)NC(=O)[C@H](Cc2ccccc2)NC1=O [BIM-23268, H-Cys-Phe-Phe-D-Trp-Lys-Thr-Phe-Cys-NH2] (H-CFF[dW]KTFC-NH2; disulfide 1-8)",reducing hypertriglyceridemia,[1]; 6-day treatment period at the prescribed dose (3 mg/kg s.c. twice a day),effective in reducing hypertriglyceridemia
same,plasma glycerol,[1]; [3],significantly lowered
same,plasma triglycerides,[1]; [3],significantly lowered
same,plasma glycerol,[1]; [4],significantly lower
same,plasma triglycerides,[1]; [4],significantly lower
same,amount of food consumed over the entire treatment period versus control,[2]; 3 mg/kg s.c. twice a day for six days,no difference
same,body weight gain versus control,[2]; [5],lower
same,toxic effect / appearance of treated group,[2]; [5],appeared healthy
same,average food consumption,"[2]; 3 mg/kg s.c. twice a day, 6-day treatment, control 26.0",25.9 g/rat/day
same,treated group's mean weight after six days,"[2]; male fatty Zucker rats, 3 mg/kg s.c. twice a day for six days, control 418.89",413.6
same,treated group's mean weight at the start of the trial,"[2]; male fatty Zucker rats, before 3 mg/kg s.c. twice a day, control 414.09",413.6
